Where “and” joins values, the source holds several entries; their conditions need not be identical. Equal entries are not always repeated.
Test system: 947758-054-R-J2-PDC spheroid growth, percent test/control
Experiment: Anticancer human tumor 947758-054-R-J2-PDC patient-derived colon adenocarcinoma cell line growth inhibition [CLK]
Details: spheroids with HUVEC and MSC; for viability, T/C: stronger effect = lower value
Outline: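 Patient-derived tumor cells grown as complex spheroids with HUVEC endothelial cells and mesenchymal stem cells, treated with drug combinations. Concentrations descend in half-log steps from near clinical Cmax, or from 10 microM if Cmax unknown.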

[1] = curve of first compound, second compound 0.0316 µM
[2] = curve of first compound, second compound 0.1 µM
[3] = curve of first compound, second compound 0.316 µM
[4] = curve of first compound, second compound 1 µM
[5] = curve of first compound, second compound 3.16 µM
[6] = curve of first compound, second compound 10 µM
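Further: spheroids exposed to compounds for one week before readout.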
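Wherever viability, T/C is given: 100% = DMSO vehicle control wells.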

Question: How did the IC50 [1] turn out when `NC(=O)C(=Cn1cnc(-c2cc(C(F)(F)F)cc(C(F)(F)F)c2)n1)c1cncnc1` + CNC(=O)c1ccc(Nc2nc(OC3CCCC3)c3c(-c4ccc5nc(C)oc5c4)c[nH]c3n2)c(OC)c1 was run?
Answer: < 9.49 nM

Question: What about the IC50 [2] of the same compound?
Answer: < 9.49 nM

Question: What about the IC50 [3] of the same compound?
Answer: 11.2 nM

Question: And the IC50 [4]?
Answer: < 9.49 nM

Question: What about the IC50 [5] of the same compound?
Answer: < 9.49 nM

Question: And the IC50 [6]?
Answer: < 9.49 nM

Question: What about the viability, T/C (second compound 0.0316 µM, first compound 0.00949 µM) of the same compound?
Answer: 46.7%

Question: What about the viability, T/C (second compound 0.0316 µM, first compound 0.03 µM) of the same compound?
Answer: 37.3%

Question: What about the viability, T/C (second compound 0.0316 µM, first compound 0.0949 µM) of the same compound?
Answer: 34.4%

Question: What about the viability, T/C (second compound 0.0316 µM, first compound 0.3 µM) of the same compound?
Answer: 33.6%

Question: What about the viability, T/C (second compound 0.0316 µM, first compound 0.949 µM) of the same compound?
Answer: 8.62%

Question: What about the viability, T/C (second compound 0.0316 µM, first compound 3 µM) of the same compound?
Answer: 2.27%

Question: And the viability, T/C (second compound 0.1 µM, first compound 0.00949 µM)?
Answer: 45.2%

Question: And the viability, T/C (second compound 0.1 µM, first compound 0.03 µM)?
Answer: 32.4%

Question: What about the viability, T/C (second compound 0.1 µM, first compound 0.0949 µM) of the same compound?
Answer: 25.6%

Question: And the viability, T/C (second compound 0.1 µM, first compound 0.3 µM)?
Answer: 22.8%

Question: And the viability, T/C (second compound 0.1 µM, first compound 0.949 µM)?
Answer: 4.68%

Question: What about the viability, T/C (second compound 0.1 µM, first compound 3 µM) of the same compound?
Answer: 0.78%

Question: And the viability, T/C (second compound 0.316 µM, first compound 0.00949 µM)?
Answer: 53.1%

Question: And the viability, T/C (second compound 0.316 µM, first compound 0.03 µM)?
Answer: 32.4%

Question: What about the viability, T/C (second compound 0.316 µM, first compound 0.0949 µM) of the same compound?
Answer: 15.1%

Question: What about the viability, T/C (second compound 0.316 µM, first compound 0.3 µM) of the same compound?
Answer: 11.8%

Question: What about the viability, T/C (second compound 0.316 µM, first compound 0.949 µM) of the same compound?
Answer: 3.26%

Question: And the viability, T/C (second compound 0.316 µM, first compound 3 µM)?
Answer: 0.42%

Question: What about the viability, T/C (second compound 1 µM, first compound 0.00949 µM) of the same compound?
Answer: 25.9%

Question: And the viability, T/C (second compound 1 µM, first compound 0.03 µM)?
Answer: 20.6%

Question: And the viability, T/C (second compound 1 µM, first compound 0.0949 µM)?
Answer: 12%

Question: And the viability, T/C (second compound 1 µM, first compound 0.3 µM)?
Answer: 3.56%

Question: What about the viability, T/C (second compound 1 µM, first compound 0.949 µM) of the same compound?
Answer: 1.32%

Question: And the viability, T/C (second compound 1 µM, first compound 3 µM)?
Answer: 0.36%

Question: And the viability, T/C (second compound 3.16 µM, first compound 0.00949 µM)?
Answer: 20.4%

Question: And the viability, T/C (second compound 3.16 µM, first compound 0.03 µM)?
Answer: 16.3%

Question: What about the viability, T/C (second compound 3.16 µM, first compound 0.0949 µM) of the same compound?
Answer: 10.9%

Question: And the viability, T/C (second compound 3.16 µM, first compound 0.3 µM)?
Answer: 1.11%

Question: What about the viability, T/C (second compound 3.16 µM, first compound 0.949 µM) of the same compound?
Answer: 0.26%

Question: And the viability, T/C (second compound 3.16 µM, first compound 3 µM)?
Answer: 0.36%

Question: And the viability, T/C (second compound 10 µM, first compound 0.00949 µM)?
Answer: 15.3%

Question: What about the viability, T/C (second compound 10 µM, first compound 0.03 µM) of the same compound?
Answer: 13.7%

Question: What about the viability, T/C (second compound 10 µM, first compound 0.0949 µM) of the same compound?
Answer: 5.14%

Question: What about the viability, T/C (second compound 10 µM, first compound 0.3 µM) of the same compound?
Answer: 0.42%

Question: What about the viability, T/C (second compound 10 µM, first compound 0.949 µM) of the same compound?
Answer: 0.28%

Question: What about the viability, T/C (second compound 10 µM, first compound 3 µM) of the same compound?
Answer: 0.34%

Question: For `COc1ccc([C@@H](O)c2cc(-c3ncnc4cc(N5CCOCC5)ccc34)c(F)cc2Cl)nn1` + CN1CCN(c2cc(C(=O)Nc3cc4cc(-c5cnn(C)c5)ccc4cn3)ccn2)CC1, which IC50 [1] is on record?
Answer: > 10000 nM

Question: And the IC50 [2]?
Answer: 4240 nM

Question: And the IC50 [3]?
Answer: < 31.6 nM

Question: And the IC50 [4]?
Answer: < 31.6 nM

Question: And the IC50 [5]?
Answer: < 31.6 nM

Question: What about the IC50 [6] of the same compound?
Answer: < 31.6 nM

Question: And the viability, T/C (second compound 0.0316 µM, first compound 0.0316 µM)?
Answer: 126%

Question: And the viability, T/C (second compound 0.0316 µM, first compound 0.1 µM)?
Answer: 134%

Question: And the viability, T/C (second compound 0.0316 µM, first compound 0.316 µM)?
Answer: 157%

Question: What about the viability, T/C (second compound 0.0316 µM, first compound 1 µM) of the same compound?
Answer: 163%

Question: And the viability, T/C (second compound 0.0316 µM, first compound 3.16 µM)?
Answer: 165%

Question: And the viability, T/C (second compound 0.0316 µM, first compound 10 µM)?
Answer: 64%

Question: What about the viability, T/C (second compound 0.1 µM, first compound 0.0316 µM) of the same compound?
Answer: 119%

Question: What about the viability, T/C (second compound 0.1 µM, first compound 0.1 µM) of the same compound?
Answer: 137%

Question: What about the viability, T/C (second compound 0.1 µM, first compound 0.316 µM) of the same compound?
Answer: 111%

Question: What about the viability, T/C (second compound 0.1 µM, first compound 1 µM) of the same compound?
Answer: 92.1%

Question: And the viability, T/C (second compound 0.1 µM, first compound 3.16 µM)?
Answer: 59.8%

Question: And the viability, T/C (second compound 0.1 µM, first compound 10 µM)?
Answer: 25.2%

Question: And the viability, T/C (second compound 0.316 µM, first compound 0.0316 µM)?
Answer: 1.95%

Question: And the viability, T/C (second compound 0.316 µM, first compound 0.1 µM)?
Answer: 5%

Question: What about the viability, T/C (second compound 0.316 µM, first compound 0.316 µM) of the same compound?
Answer: 1.88%

Question: What about the viability, T/C (second compound 0.316 µM, first compound 1 µM) of the same compound?
Answer: 2.42%

Question: And the viability, T/C (second compound 0.316 µM, first compound 3.16 µM)?
Answer: 2.05%

Question: What about the viability, T/C (second compound 0.316 µM, first compound 10 µM) of the same compound?
Answer: 1.12%

Question: What about the viability, T/C (second compound 1 µM, first compound 0.0316 µM) of the same compound?
Answer: 0.11%

Question: And the viability, T/C (second compound 1 µM, first compound 0.1 µM)?
Answer: 1.62%

Question: And the viability, T/C (second compound 1 µM, first compound 0.316 µM)?
Answer: 0.17%

Question: And the viability, T/C (second compound 1 µM, first compound 1 µM)?
Answer: 0.08%

Question: What about the viability, T/C (second compound 1 µM, first compound 3.16 µM) of the same compound?
Answer: 1.67%

Question: What about the viability, T/C (second compound 1 µM, first compound 10 µM) of the same compound?
Answer: 0.46%

Question: What about the viability, T/C (second compound 3.16 µM, first compound 0.0316 µM) of the same compound?
Answer: 0.13%

Question: What about the viability, T/C (second compound 3.16 µM, first compound 0.1 µM) of the same compound?
Answer: 1.34%

Question: And the viability, T/C (second compound 3.16 µM, first compound 0.316 µM)?
Answer: 0.63%

Question: And the viability, T/C (second compound 3.16 µM, first compound 1 µM)?
Answer: 0.14%

Question: And the viability, T/C (second compound 3.16 µM, first compound 3.16 µM)?
Answer: 0.18%

Question: And the viability, T/C (second compound 3.16 µM, first compound 10 µM)?
Answer: 0.3%

Question: What about the viability, T/C (second compound 10 µM, first compound 0.0316 µM) of the same compound?
Answer: 0.26%

Question: What about the viability, T/C (second compound 10 µM, first compound 0.1 µM) of the same compound?
Answer: 0.42%

Question: What about the viability, T/C (second compound 10 µM, first compound 0.316 µM) of the same compound?
Answer: 0.26%

Question: What about the viability, T/C (second compound 10 µM, first compound 1 µM) of the same compound?
Answer: 0.21%

Question: And the viability, T/C (second compound 10 µM, first compound 3.16 µM)?
Answer: 0.3%

Question: And the viability, T/C (second compound 10 µM, first compound 10 µM)?
Answer: 0.88%

Question: `O=c1[nH]cc(F)c(=O)[nH]1` was tested. Which viability, T/C (compound 0.0316 µM) did it give?
Answer: 91.8% and 91.2%

Question: What about the viability, T/C (compound 0.1 µM) of the same compound?
Answer: 103% and 99%

Question: And the viability, T/C (compound 0.316 µM)?
Answer: 129% and 86.8%

Question: And the viability, T/C (compound 1 µM)?
Answer: 54.9% and 55.9%

Question: And the viability, T/C (compound 3.16 µM)?
Answer: 34.4% and 37.1%

Question: And the viability, T/C (compound 10 µM)?
Answer: 31.2% and 36.5%

Question: And the IC50 (curve of compound)?
Answer: 1290 nM and 1430 nM
